Assay [1] concerns rats fed cholesterol food. Put plainly: Blood cholesterol lowering effect in rats fed cholesterol food. The format is in vivo, rat. The conditions noted are these: oral, twice per day, SD (IGS) male rats, serum 3 hours after final administration. The protocol:
In the present Test Example, a blood cholesterol lowering effect on rats fed cholesterol food was evaluated according to the method described in J. Lipid Res., 1995, 36, 1098-1105.
That is, the food containing 0.4% cholesterol and 0.5% bile acid was given to SD (IGS) strain male rats at 7 to 9 weeks of age for 5 days in advance of the test date, to increase blood cholesterol levels. The rats in which the blood cholesterol level had been obviously elevated from the level before loading the cholesterol food were selected as the subjects in the test. Colestimide (brand name: Cholebine 70% granules, supplied from Mitsubishi Tokyo Pharmaceutical Inc.) which is an anion exchange resin drug was suspended in distilled water, and the test compound was dissolved or suspended in distilled water. They were orally administered forcibly twice per day everyday from the starting date (each n=8). The blood was collected from jugular vein 3 hours after the drug administration on the final day of the experiment, and the cholesterol level in serum was measured to examine the effect of the test compound. As a control, another group (n=8) was merely fed cholesterol food, to which distilled water (1 mL/kg) was administered and the same procedure was applied. The total cholesterol value and the HDL cholesterol value were measured using commercially available kits. The value obtained by subtracting the HDL cholesterol value from the total cholesterol value was regarded as an LDL+VLDL cholesterol value.

Assay [2] concerns male beagle dogs. Put plainly: Effect of combination with pravastatin on plasma total cholesterol levels in dogs. The format is in vivo, dog. The conditions noted are these: for plasma total cholesterol BEFORE TREATMENT: Example compound 3 mg/kg alone group, baseline; for plasma total cholesterol BEFORE TREATMENT / plasma total cholesterol AFTER TREATMENT: N=4, mean±standard error; for plasma total cholesterol AFTER TREATMENT / plasma total cholesterol BEFORE TREATMENT − AFTER TREATMENT / reduction rate with respect to the data before administration (number in parenthesis): Example compound 3 mg/kg alone, oral once daily for 7 days; for plasma total cholesterol BEFORE TREATMENT − AFTER TREATMENT / reduction rate with respect to the data before administration (number in parenthesis): vehicle 1. The source says: The effect of the combination of the compounds described in Example with pravastatin (HMG-CoA reductase inhibitor) on plasma cholesterol levels in dogs was examined.
To male beagle dogs (supplied from Kitayama Labes, body weight 9 to 13 kg), usual solid feedstuff (DS-A: Oriental Yeast Co., Ltd.) was given once daily at 13:00 to 14:00. The light was turned on from 7:00 to 19:00 as a light period, and the remaining was defined as a dark period. Water was given ad libitum. In the morning in the week prior to the administration, the blood was collected with heparin from forearm cephalic vein, and plasma was collected by centrifugation. The total cholesterol level of this plasma was measured using the commercially available cholesterol level measurement kit by the enzymatic method (Cholesterol-E Test Wako). The dogs were grouped so that the total cholesterol levels were almost equal. Sodium pravastatin (1 mg/kg, Sankyo) alone or 3 mg/kg of the compound described in each of Examples alone or the combination thereof was orally administered once daily just before feeding for 7 days. Pravastatin was dissolved in distilled water, and the compound described in Example was suspended in 0.5% methylcellulose solution for administration. On the day after the final administration, the blood was collected from the forearm cephalic vein under starving, to which plasma was obtained. The total cholesterol level therein was measured by the same way. As a result, the total cholesterol level in the plasma was reduced by 7 mg/dL (6%) by orally administering 1 mg/kg/day of pravastatin for 7 days. The total cholesterol level in the plasma was reduced by […] (3 to 8%) by orally administering 3 mg/kg/day of the compound described in each of Examples for 7 days. When pravastatin and the compound described in each of Examples were co-administered at this dosages, the total cholesterol in the plasma was reduced by 14 to 24 mg/dL (12 to 20%). The reduction rate of the total cholesterol level was larger in the co-administration with the compound described in Example than in the administration of pravastatin alone, and the augmented effect by the co-administration was observed.

Assay [3] relates to rats with partial ligation of the bile duct dosed bile acid. Put plainly: Model for hepatic disorder associated with cholestasis (partial bile duct ligation model), Protocol A: AST, ALT, ALP. The assay is classed as in vivo, rat. The source says:
In the present Test Example, a model for the hepatic disorder caused by partial ligation of the bile duct was employed with reference to Kanno's method (Liver, 43, Suppl(1):A126, 2002).
That is, to the SD (IGS) strain male rats at 7 to 10 weeks of age, the partial ligation of the bile duct was given with opening the abdominal cavity under anesthesia with pentobarbital. Before the operation, the blood was collected from femoral vein, in order to obtain the value before the administration. From the day after the operation, 200 mg/kg of bile acid and the test compound were orally administered forcibly twice per day for 3.5 days (Protocol A). Without giving the partial ligation of the bile duct, 200 mg/kg of bile acid and the test compound were also orally administered forcibly twice per day for 3.5 days (Protocol B). In both cases, the test compound was dissolved or suspended in distilled water or an aqueous solution of 1% HCO 60 (Nippon Chemicals). To the control group, saline was administered. As comparative examples, 25 mg/kg of cholestyramine (supplied from Sigma) or 50 mg/kg of ursodeoxycholic acid (supplied from Mitsubishi Pharma) was administered. For considering the effect of the operation, sham operation (sham group) was performed in some cases. The blood was collected from the abdominal aorta 6 hours after the drug administration on the final day of the experiment. AST (GOT), ALT (GPT) and ALP in the blood were measured using measurement kits (GOT II-HA Test Wako, GPT II-HA Test Wako and Alkaline Phosphor HA Test Wako, all were supplied from Wako Pure Chemical Industries) and using an automatic analyzer (Nitech ANALAYZER SUPER Z818).

[4] abbreviates: Table 12-2, 1 mg/kg in 1% HCO 60, N=3, mean±standard error, control group 384 ± 156, sham 48 ± 5.
Setting [5] is: Table 12-2, 1 mg/kg in 1% HCO 60, N=3, mean±standard error, control group 643 ± 125, sham 128 ± 18.
Where [6] appears, read: Table 12-2, 1 mg/kg in 1% HCO 60, N=3, mean±standard error, control group 2204 ± 327, sham 630 ± 87.
[7] abbreviates: Table 12-1, Protocol A, 1 mg/kg in 1% HCO 60, N=3, mean±standard error, control group 417 ± 185, sham 43 ± 1.
Setting [8] is: Table 12-1, Protocol A, 1 mg/kg in 1% HCO 60, N=3, mean±standard error, control group 589 ± 221, sham 141 ± 26.
Where [9] appears, read: Table 12-1, Protocol A, 1 mg/kg in 1% HCO 60, N=3, mean±standard error, control group 2318 ± 583, sham 665 ± 94.

For the compound `CCCCC1(CCCC)CS(=O)(=O)c2ccc(N(C)C)cc2C(c2cccc(NC(=S)Nc3ccc(C[n+]4ccccc4CCC)cc3)c2)N1.[Br-]` (stereo not shown) [EXAMPLE 5408], the “LDL + VLDL REDUCTION RATE (%) IN CHOLESTEROL FED RAT MODEL (THERAPEUTIC MODEL)” value in assay [1] (0.3 mg/kg per administration) came out at 43%. Further, in assay [2], the “plasma total cholesterol BEFORE TREATMENT” value stood at 128 ± 4 mg/dL, the “plasma total cholesterol AFTER TREATMENT” value is on record as 122 ± 4 mg/dL, the “plasma total cholesterol BEFORE TREATMENT − AFTER TREATMENT” value came to 6 mg/dL and the “reduction rate with respect to the data before administration (number in parenthesis)” value (“reduction rate … (number in parenthesis)” below) worked out at 5. The ALT in assay [3] (setting [4]) amounted to 197 ± 45 IU/L. This compound also gave an AST in assay [3] (setting [5]) of 198 ± 65 IU/L. This compound gave an ALP in assay [3] (setting [6]) of 1005 ± 102 IU/L.

As to `CCCCC1(CCCC)CS(=O)(=O)c2ccc(N(C)C)cc2C(c2cccc(NC(=S)Nc3ccc(C[n+]4ccc(C(C)(C)C)cc4)cc3)c2)N1.[Br-]` (stereo not shown) [EXAMPLE 3713], the “LDL + VLDL REDUCTION RATE (%) IN CHOLESTEROL FED RAT MODEL (THERAPEUTIC MODEL)” value in assay [1] (0.3 mg/kg per administration) is 41%. In assay [2], the “plasma total cholesterol BEFORE TREATMENT” value is 117 ± 4 mg/dL, the “plasma total cholesterol AFTER TREATMENT” value is 113 ± 3 mg/dL, the “plasma total cholesterol BEFORE TREATMENT − AFTER TREATMENT” value came to 4 mg/dL and the “reduction rate … (number in parenthesis)” value stood at 3. This compound registered an ALT in assay [3] (setting [4]) of 163 ± 96 IU/L. In assay [3] (setting [5]), this compound gave an AST of 280 ± 61 IU/L. This compound also returned an ALP in assay [3] (setting [6]) of 1008 ± 289 IU/L.

Take `CCCCC1(CCCC)CS(=O)(=O)c2ccc(N(C)C)cc2C(c2cccc(NC(=S)Nc3ccc(C[N+](C)(C)Cc4ccccc4)cc3)c2)N1.[Br-]` (stereo not shown) [EXAMPLE 3440]: the “LDL + VLDL REDUCTION RATE (%) IN CHOLESTEROL FED RAT MODEL (THERAPEUTIC MODEL)” value in assay [1] (0.3 mg/kg per administration) turned out to be 36%. For the same compound, the ALT in assay [3] (setting [7]) stood at 155 ± 38 IU/L. In assay [3] (setting [8]), this compound registered an AST of 309 ± 37 IU/L. In assay [3] (setting [9]), this compound displayed an ALP of 1614 ± 189 IU/L.

With `CCCCC1(CCCC)CS(=O)(=O)c2ccc(N(C)C)cc2C(c2cccc(NC(=S)Nc3ccc(C[n+]4cccc(CCC(=O)OC)c4)cc3)c2)N1.[Br-]` (stereo not shown) [EXAMPLE 3752], the “LDL + VLDL REDUCTION RATE (%) IN CHOLESTEROL FED RAT MODEL (THERAPEUTIC MODEL)” value in assay [1] (0.3 mg/kg per administration) is 50%. In assay [3] (setting [4]), this compound registered an ALT of 165 ± 47 IU/L. The compound also returned an AST in assay [3] (setting [5]) of 358 ± 87 IU/L. The same compound showed an ALP in assay [3] (setting [6]) of 1112 ± 184 IU/L.

`C#CC[N+](C)(Cc1ccccc1)Cc1ccc(NC(=S)Nc2cccc(C3NC(CCCC)(CCCC)CS(=O)(=O)c4ccc(N(C)C)cc43)c2)cc1.[Br-]` (racemic) [EXAMPLE 3448]: the “LDL + VLDL REDUCTION RATE (%) IN CHOLESTEROL FED RAT MODEL (THERAPEUTIC MODEL)” value in assay [1] (0.3 mg/kg per administration) amounted to 20%. The ALT in assay [3] (setting [7]) was 181 ± 79 IU/L. For the same compound, the AST in assay [3] (setting [8]) turned out to be 352 ± 210 IU/L. Further, the ALP in assay [3] (setting [9]) was found to be 1148 ± 332 IU/L.

As for `CCCCC1(CCCC)CS(=O)(=O)c2ccc(N(C)C)cc2C(c2cccc(NC(=S)Nc3ccc(C[n+]4cccc(CCCO)c4)cc3)c2)N1.[Br-]` (stereo not shown) [EXAMPLE 3747], the “LDL + VLDL REDUCTION RATE (%) IN CHOLESTEROL FED RAT MODEL (THERAPEUTIC MODEL)” value in assay [1] (0.3 mg/kg per administration) came out at 48%. This compound registered an ALT in assay [3] (setting [4]) of 146 ± 70 IU/L. In assay [3] (setting [5]), this compound showed an AST of 245 ± 81 IU/L. In assay [3] (setting [6]), the ALP was found to be 960 ± 259 IU/L.

As to `CCCCC1(CCCC)CS(=O)(=O)c2ccc(N(C)C)cc2C(c2cccc(NC(=S)Nc3ccc(C[N+]4(Cc5ccccc5)CCC(O)CC4)cc3)c2)N1.[Br-]` (stereo not shown) [EXAMPLE 3605], the “LDL + VLDL REDUCTION RATE (%) IN CHOLESTEROL FED RAT MODEL (THERAPEUTIC MODEL)” value in assay [1] (0.3 mg/kg per administration) worked out at 28%. Further, in assay [3] (setting [7]), the ALT amounted to 258 ± 219 IU/L. The same compound displayed an AST in assay [3] (setting [8]) of 487 ± 382 IU/L. Also, the ALP in assay [3] (setting [9]) is on record as 1489 ± 533 IU/L.

In the case of `CCCCC1(CCCC)CS(=O)(=O)c2ccc(N(C)C)cc2C(c2cccc(NC(=S)CCCCC[N+]34CCC(CC3)CC4)c2)N1.[Br-]` (stereo not shown) [EXAMPLE 1, 1-{5-[3-(3,3-dibutyl-7-dimethylamino-1,1-dioxo-2,3,4,5-tetrahydro-1,4-benzothiazepine-5-yl)phenylthiocarbamoyl]pentyl}-1-azoniabicyclo[2.2.2]octane bromide], the figures for the “LDL + VLDL REDUCTION RATE (%) IN CHOLESTEROL FED RAT MODEL (THERAPEUTIC MODEL)” value in assay [1] (0.3 mg/kg per administration) and in assay [1] (1 mg/kg per administration) were 49% and 68.4%, respectively. The ALT in assay [3] (Table 11, Protocol A, 0.1 mg/kg oral twice per day for 3.5 days, N=8, mean±standard error, control group 200 ± 81) turned out to be 61 ± 4 IU/L. The compound also showed an AST in assay [3] (Table 11, Protocol A, 0.1 mg/kg oral twice per day for 3.5 days, N=8, mean±standard error, control group 400 ± 160) of 182 ± 42 IU/L. The compound further showed an ALP in assay [3] (Table 11, Protocol A, 0.1 mg/kg oral twice per day for 3.5 days, N=8, mean±standard error, control group 1120 ± 410) of 603 ± 78 IU/L.

In the case of `CCCCC1(CCCC)CS(=O)(=O)c2ccc(N(C)C)cc2C(c2cccc(NC(=S)Nc3ccc(C[N+]45CCC(c6ccccc6)(CC4)CC5)cc3)c2)N1.[Br-]` (racemic) [EXAMPLE 3696], in assay [1] (0.3 mg/kg per administration), the “LDL + VLDL REDUCTION RATE (%) IN CHOLESTEROL FED RAT MODEL (THERAPEUTIC MODEL)” value stood at 25%. In assay [2], the “plasma total cholesterol BEFORE TREATMENT” value turned out to be 119 ± 2 mg/dL, the “plasma total cholesterol AFTER TREATMENT” value was determined as 115 ± 3 mg/dL, the “plasma total cholesterol BEFORE TREATMENT − AFTER TREATMENT” value is 3 (3) mg/dL and the “reduction rate … (number in parenthesis)” value is recorded as 3 (3). Also, the ALT in assay [3] (setting [4]) is 191 ± 21 IU/L. In assay [3] (setting [5]), this compound had an AST of 325 ± 87 IU/L. In assay [3] (setting [6]), this compound came in with an ALP of 1209 ± 125 IU/L.
